Results taken from the kinase profiling compilation of Christmann-Franck et al. (2016).

How the values were obtained:
Test in all cases: KINOMEscan competition binding
Settings in all cases: compound 10.0 µM
RIOK2 (human) = RIOK2 (human) (UniProt Q9BVS4)
STK11 (human) = STK11 (human) (UniProt Q15831)
CDC42BPA (human) = CDC42BPA (human) (UniProt Q5VT25)
MAPK9 (human) = MAPK9 (human) (UniProt P45984)
PIK3C2B (human) = PIK3C2B (human) (UniProt O00750)
YES1 (human) = YES1 (human) (UniProt P07947)
STK17A (human) = STK17A (human) (UniProt Q9UEE5)
ABL2 (human) = ABL2 (human) (UniProt P42684)
NEK7 (human) = NEK7 (human) (UniProt Q8TDX7)
MAP3K9 (human) = MAP3K9 (human) (UniProt P80192)
PLK3 (human) = PLK3 (human) (UniProt Q9H4B4)
SRPK2 (human) = SRPK2 (human) (UniProt P78362)
TAOK3 (human) = TAOK3 (human) (UniProt Q9H2K8)
CSNK1A1L (human) = CSNK1A1L (human) (UniProt Q8N752)
EPHA8 (human) = EPHA8 (human) (UniProt P29322)
MAPK14 (human) = MAPK14 (human) (UniProt Q16539)
STK4 (human) = STK4 (human) (UniProt Q13043)
MAP2K6 (human) = MAP2K6 (human) (UniProt P52564)
MAPK8 (human) = MAPK8 (human) (UniProt P45983)
PIK3CD (human) = PIK3CD (human) (UniProt O00329)
PRKAA1 (human) = PRKAA1 (human) (UniProt Q13131)
LATS1 (human) = LATS1 (human) (UniProt O95835)
MYLK2 (human) = MYLK2 (human) (UniProt Q9H1R3)
SRC (human) = SRC (human) (UniProt P12931)
[1] = system: KIT (human), P10721 [V559D]
INSRR (human) = INSRR (human) (UniProt P14616)
STK17B (human) = STK17B (human) (UniProt O94768)
LIMK2 (human) = LIMK2 (human) (UniProt P53671)
MYO3B (human) = MYO3B (human) (UniProt Q8WXR4)
MKNK2 (human) = MKNK2 (human) (UniProt Q9HBH9)
ANKK1 (human) = ANKK1 (human) (UniProt Q8NFD2)
[2] = system: ABL1 (human), P00519 [M351T]
PHKG1 (human) = PHKG1 (human) (UniProt Q16816)
CDK16 (human) = CDK16 (human) (UniProt Q00536)
PIM3 (human) = PIM3 (human) (UniProt Q86V86)
SGK110 (human) = SGK110 (human) (UniProt P0C264)
SLK (human) = SLK (human) (UniProt Q9H2G2)
DCLK1 (human) = DCLK1 (human) (UniProt O15075)
MAP3K10 (human) = MAP3K10 (human) (UniProt Q02779)
NTRK2 (human) = NTRK2 (human) (UniProt Q16620)
Chain of NTRK2 (human) (Q16620 whole entry, looked up): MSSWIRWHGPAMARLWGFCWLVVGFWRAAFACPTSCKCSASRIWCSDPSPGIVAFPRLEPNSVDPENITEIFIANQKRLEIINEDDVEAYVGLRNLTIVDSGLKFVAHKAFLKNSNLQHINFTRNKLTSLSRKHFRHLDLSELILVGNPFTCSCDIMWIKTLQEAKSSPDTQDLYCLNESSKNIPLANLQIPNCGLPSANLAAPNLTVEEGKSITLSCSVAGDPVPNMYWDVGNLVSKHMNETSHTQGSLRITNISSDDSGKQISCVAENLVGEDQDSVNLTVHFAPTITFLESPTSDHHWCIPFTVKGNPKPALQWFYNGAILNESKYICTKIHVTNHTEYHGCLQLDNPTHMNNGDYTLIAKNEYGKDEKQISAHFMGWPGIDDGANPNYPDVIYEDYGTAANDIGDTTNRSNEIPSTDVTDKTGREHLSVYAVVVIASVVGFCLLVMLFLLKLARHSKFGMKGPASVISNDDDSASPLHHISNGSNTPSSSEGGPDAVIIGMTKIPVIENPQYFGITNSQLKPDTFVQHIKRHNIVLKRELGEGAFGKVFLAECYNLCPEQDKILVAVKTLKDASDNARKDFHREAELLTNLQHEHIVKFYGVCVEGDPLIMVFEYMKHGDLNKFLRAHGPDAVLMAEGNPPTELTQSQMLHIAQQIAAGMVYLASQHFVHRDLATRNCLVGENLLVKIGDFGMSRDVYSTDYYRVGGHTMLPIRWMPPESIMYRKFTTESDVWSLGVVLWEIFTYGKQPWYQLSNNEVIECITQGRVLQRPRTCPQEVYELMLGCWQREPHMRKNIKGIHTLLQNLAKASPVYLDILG

Chain of MAPK14 (human) (Q16539 whole entry, looked up): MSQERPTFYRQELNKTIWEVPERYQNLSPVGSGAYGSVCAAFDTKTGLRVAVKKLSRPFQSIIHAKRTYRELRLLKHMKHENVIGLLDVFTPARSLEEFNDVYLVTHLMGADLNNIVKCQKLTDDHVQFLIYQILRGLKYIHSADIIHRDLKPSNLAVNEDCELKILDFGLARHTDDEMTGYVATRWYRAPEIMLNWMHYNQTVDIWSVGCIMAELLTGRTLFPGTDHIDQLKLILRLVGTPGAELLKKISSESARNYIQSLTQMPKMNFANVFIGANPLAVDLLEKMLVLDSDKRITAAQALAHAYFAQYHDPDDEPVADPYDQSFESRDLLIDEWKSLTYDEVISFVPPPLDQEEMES
Chain of SGK110 (human) (P0C264 whole entry, looked up): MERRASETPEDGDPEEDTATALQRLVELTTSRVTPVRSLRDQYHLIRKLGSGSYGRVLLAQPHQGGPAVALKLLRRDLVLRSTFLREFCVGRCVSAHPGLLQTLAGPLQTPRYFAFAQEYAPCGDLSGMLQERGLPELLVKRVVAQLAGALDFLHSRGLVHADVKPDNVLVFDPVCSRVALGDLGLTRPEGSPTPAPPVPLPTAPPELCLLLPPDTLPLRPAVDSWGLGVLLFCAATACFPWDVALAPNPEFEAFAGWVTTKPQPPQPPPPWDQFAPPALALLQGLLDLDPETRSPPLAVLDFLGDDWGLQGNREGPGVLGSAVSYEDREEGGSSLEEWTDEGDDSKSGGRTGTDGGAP
Chain of MKNK2 (human) (Q9HBH9 whole entry, looked up): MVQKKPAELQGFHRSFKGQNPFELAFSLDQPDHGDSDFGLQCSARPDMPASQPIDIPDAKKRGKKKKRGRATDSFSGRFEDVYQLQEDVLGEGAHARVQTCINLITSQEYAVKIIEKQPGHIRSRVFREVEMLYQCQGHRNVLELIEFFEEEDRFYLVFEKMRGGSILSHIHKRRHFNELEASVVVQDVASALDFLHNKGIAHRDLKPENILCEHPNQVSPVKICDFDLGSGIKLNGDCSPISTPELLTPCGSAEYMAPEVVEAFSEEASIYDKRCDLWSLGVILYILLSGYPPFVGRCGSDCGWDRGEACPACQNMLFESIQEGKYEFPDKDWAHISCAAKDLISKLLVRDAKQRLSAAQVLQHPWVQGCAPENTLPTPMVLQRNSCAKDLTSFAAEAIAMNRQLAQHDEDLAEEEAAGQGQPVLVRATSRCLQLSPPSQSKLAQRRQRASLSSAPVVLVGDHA
Chain of MAP2K6 (human) (P52564 whole entry, looked up): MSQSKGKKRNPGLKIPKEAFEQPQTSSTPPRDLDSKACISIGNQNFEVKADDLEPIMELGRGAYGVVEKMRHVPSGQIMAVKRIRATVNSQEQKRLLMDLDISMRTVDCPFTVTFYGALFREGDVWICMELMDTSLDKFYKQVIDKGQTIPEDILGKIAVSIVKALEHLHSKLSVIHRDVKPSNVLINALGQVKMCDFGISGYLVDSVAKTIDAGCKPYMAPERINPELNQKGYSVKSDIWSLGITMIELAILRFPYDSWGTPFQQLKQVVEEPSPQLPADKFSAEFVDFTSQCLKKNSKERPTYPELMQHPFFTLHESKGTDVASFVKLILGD
Chain of STK11 (human) (Q15831 whole entry, looked up): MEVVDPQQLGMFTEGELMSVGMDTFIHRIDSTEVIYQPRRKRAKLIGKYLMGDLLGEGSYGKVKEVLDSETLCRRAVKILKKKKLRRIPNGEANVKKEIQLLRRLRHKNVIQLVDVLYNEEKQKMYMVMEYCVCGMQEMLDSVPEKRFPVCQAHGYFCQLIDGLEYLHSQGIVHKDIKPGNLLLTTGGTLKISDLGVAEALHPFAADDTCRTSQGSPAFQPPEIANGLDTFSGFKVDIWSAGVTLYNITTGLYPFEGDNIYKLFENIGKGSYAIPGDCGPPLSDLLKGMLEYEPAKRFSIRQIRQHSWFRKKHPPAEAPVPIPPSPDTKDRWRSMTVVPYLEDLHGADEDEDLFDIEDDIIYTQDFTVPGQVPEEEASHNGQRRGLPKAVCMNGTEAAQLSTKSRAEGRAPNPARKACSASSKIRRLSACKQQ
Chain of PLK3 (human) (Q9H4B4 whole entry, looked up): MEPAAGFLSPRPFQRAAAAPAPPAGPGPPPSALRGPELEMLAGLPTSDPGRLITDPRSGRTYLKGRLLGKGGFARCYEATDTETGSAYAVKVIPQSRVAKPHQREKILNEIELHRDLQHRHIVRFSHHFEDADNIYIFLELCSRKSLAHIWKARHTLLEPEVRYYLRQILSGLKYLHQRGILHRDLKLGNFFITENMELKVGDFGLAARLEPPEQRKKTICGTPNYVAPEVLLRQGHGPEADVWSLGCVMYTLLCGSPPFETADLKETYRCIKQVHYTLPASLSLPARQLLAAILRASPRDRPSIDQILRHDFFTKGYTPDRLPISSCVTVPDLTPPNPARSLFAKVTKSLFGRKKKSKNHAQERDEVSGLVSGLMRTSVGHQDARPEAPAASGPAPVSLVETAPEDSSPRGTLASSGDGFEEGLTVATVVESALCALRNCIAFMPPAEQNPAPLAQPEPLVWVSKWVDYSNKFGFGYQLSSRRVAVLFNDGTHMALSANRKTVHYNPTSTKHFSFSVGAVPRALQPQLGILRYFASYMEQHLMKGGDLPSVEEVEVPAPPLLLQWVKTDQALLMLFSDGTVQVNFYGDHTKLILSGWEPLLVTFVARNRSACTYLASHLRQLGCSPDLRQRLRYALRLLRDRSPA
Chain of LIMK2 (human) (P53671 whole entry, looked up): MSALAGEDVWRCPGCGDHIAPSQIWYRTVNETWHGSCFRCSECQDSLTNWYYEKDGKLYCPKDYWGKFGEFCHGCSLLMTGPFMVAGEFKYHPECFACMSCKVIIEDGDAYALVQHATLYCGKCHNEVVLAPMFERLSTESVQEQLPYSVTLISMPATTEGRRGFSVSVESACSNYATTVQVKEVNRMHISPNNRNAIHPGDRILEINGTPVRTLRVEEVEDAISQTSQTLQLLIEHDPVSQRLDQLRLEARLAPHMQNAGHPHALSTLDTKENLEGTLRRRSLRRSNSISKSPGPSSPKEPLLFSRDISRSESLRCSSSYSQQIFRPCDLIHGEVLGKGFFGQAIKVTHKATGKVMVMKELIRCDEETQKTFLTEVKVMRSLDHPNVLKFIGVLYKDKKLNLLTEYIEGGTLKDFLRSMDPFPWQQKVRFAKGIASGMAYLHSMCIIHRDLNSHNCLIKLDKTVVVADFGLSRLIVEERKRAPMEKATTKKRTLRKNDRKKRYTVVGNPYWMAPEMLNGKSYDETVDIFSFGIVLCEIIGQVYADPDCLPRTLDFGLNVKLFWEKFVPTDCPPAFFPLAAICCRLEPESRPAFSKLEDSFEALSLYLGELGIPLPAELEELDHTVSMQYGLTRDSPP
Chain of CDK16 (human) (Q00536 whole entry, looked up): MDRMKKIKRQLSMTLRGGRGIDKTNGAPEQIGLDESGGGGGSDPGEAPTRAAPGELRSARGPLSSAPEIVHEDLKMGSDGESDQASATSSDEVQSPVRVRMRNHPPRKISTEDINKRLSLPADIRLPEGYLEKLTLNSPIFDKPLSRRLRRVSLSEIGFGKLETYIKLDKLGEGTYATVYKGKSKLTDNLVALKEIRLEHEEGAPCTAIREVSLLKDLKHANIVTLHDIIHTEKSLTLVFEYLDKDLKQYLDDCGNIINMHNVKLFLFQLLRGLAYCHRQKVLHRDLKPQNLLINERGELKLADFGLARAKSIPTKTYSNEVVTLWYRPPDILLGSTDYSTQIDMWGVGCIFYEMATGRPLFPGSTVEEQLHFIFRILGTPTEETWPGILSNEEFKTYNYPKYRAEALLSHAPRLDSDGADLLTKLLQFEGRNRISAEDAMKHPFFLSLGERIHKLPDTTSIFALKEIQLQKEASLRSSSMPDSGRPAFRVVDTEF

Compound | kinase still bound, per cent of control (RIOK2 (human)) | kinase still bound, per cent of control (STK11 (human)) | kinase still bound, per cent of control (CDC42BPA (human)) | kinase still bound, per cent of control (MAPK9 (human)) | kinase still bound, per cent of control (PIK3C2B (human)) | kinase still bound, per cent of control (YES1 (human)) | kinase still bound, per cent of control (STK17A (human)) | kinase still bound, per cent of control (ABL2 (human)) | kinase still bound, per cent of control (NEK7 (human)) | kinase still bound, per cent of control (MAP3K9 (human)) | kinase still bound, per cent of control (PLK3 (human)) | kinase still bound, per cent of control (SRPK2 (human)) | kinase still bound, per cent of control (TAOK3 (human)) | kinase still bound, per cent of control (CSNK1A1L (human)) | kinase still bound, per cent of control (EPHA8 (human)) | kinase still bound, per cent of control (MAPK14 (human)) | kinase still bound, per cent of control (STK4 (human)) | kinase still bound, per cent of control (MAP2K6 (human)) | kinase still bound, per cent of control (MAPK8 (human)) | kinase still bound, per cent of control (PIK3CD (human)) | also measured
COc1cc(C(=O)NC2CCN(C)CC2)ccc1Nc1ncc2c(n1)N(C1CCCC1)C(C)CC(=O)N2C (stereo not given) | 100% | 100% | 100% | 100% | 100% | 100% | 100% | 100% | 100% | 100% | 0% | 100% | 100% | 100% | 100% | 100% | 100% | 100% | 100% | 100% | kinase still bound, per cent of control (PRKAA1 (human)): 100%; kinase still bound, per cent of control (LATS1 (human)): 100%; kinase still bound, per cent of control (MYLK2 (human)): 100%; kinase still bound, per cent of control (SRC (human)): 100%; kinase still bound, per cent of control [1]: 100%; kinase still bound, per cent of control (INSRR (human)): 26%; kinase still bound, per cent of control (STK17B (human)): 100%; kinase still bound, per cent of control (LIMK2 (human)): 100%; kinase still bound, per cent of control (MYO3B (human)): 100%; kinase still bound, per cent of control (MKNK2 (human)): 100%; kinase still bound, per cent of control (ANKK1 (human)): 100%; kinase still bound, per cent of control [2]: 100%; kinase still bound, per cent of control (PHKG1 (human)): 100%; kinase still bound, per cent of control (CDK16 (human)): 100%; kinase still bound, per cent of control (PIM3 (human)): 100%; kinase still bound, per cent of control (SGK110 (human)): 100%; kinase still bound, per cent of control (SLK (human)): 1.4%; kinase still bound, per cent of control (DCLK1 (human)): 4%; kinase still bound, per cent of control (MAP3K10 (human)): 100%; kinase still bound, per cent of control (NTRK2 (human)): 100%
CN(C)C/C=C/C(=O)Nc1cccc(Nc2ncc3c(n2)N(C)c2ccccc2C(=O)N3C)c1 | 79% | 100% | 100% | 100% | 56% | 13% | 97% | 1.4% | 100% | 89% | 72% | 100% | 0% | 100% | 90% | 100% | 49% | 95% | 91% | 2.2% | kinase still bound, per cent of control (PRKAA1 (human)): 0.45%; kinase still bound, per cent of control (LATS1 (human)): 100%; kinase still bound, per cent of control (MYLK2 (human)): 46%; kinase still bound, per cent of control (SRC (human)): 0.7%; kinase still bound, per cent of control [1]: 54%; kinase still bound, per cent of control (INSRR (human)): 100%; kinase still bound, per cent of control (STK17B (human)): 100%; kinase still bound, per cent of control (LIMK2 (human)): 94%; kinase still bound, per cent of control (MYO3B (human)): 100%; kinase still bound, per cent of control (MKNK2 (human)): 0.3%; kinase still bound, per cent of control (ANKK1 (human)): 6%; kinase still bound, per cent of control [2]: 0.75%; kinase still bound, per cent of control (PHKG1 (human)): 69%; kinase still bound, per cent of control (CDK16 (human)): 95%; kinase still bound, per cent of control (PIM3 (human)): 100%; kinase still bound, per cent of control (SGK110 (human)): 0.25%; kinase still bound, per cent of control (SLK (human)): 7.3%; kinase still bound, per cent of control (DCLK1 (human)): 4%; kinase still bound, per cent of control (MAP3K10 (human)): 89%; kinase still bound, per cent of control (NTRK2 (human)): 4%
CCC(=O)N1CCN(c2ccc(-n3c(=O)ccc4cnc5ccc(-c6cnc7ccccc7c6)cc5c43)cc2C(F)(F)F)CC1 | 24% | 100% | 0.65% | 40% | 25% | 74% | 93% | 99% | 90% | 84% | 87% | 100% | 76% | 81% | 71% | 90% | 7.6% | 100% | 22% | 51% | kinase still bound, per cent of control (PRKAA1 (human)): 91%; kinase still bound, per cent of control (LATS1 (human)): 100%; kinase still bound, per cent of control (MYLK2 (human)): 40%; kinase still bound, per cent of control (SRC (human)): 95%; kinase still bound, per cent of control [1]: 50%; kinase still bound, per cent of control (INSRR (human)): 100%; kinase still bound, per cent of control (STK17B (human)): 67%; kinase still bound, per cent of control (LIMK2 (human)): 4.8%; kinase still bound, per cent of control (MYO3B (human)): 100%; kinase still bound, per cent of control (MKNK2 (human)): 54%; kinase still bound, per cent of control (ANKK1 (human)): 93%; kinase still bound, per cent of control [2]: 100%; kinase still bound, per cent of control (PHKG1 (human)): 100%; kinase still bound, per cent of control (CDK16 (human)): 91%; kinase still bound, per cent of control (PIM3 (human)): 96%; kinase still bound, per cent of control (SGK110 (human)): 94%; kinase still bound, per cent of control (SLK (human)): 94%; kinase still bound, per cent of control (DCLK1 (human)): 100%; kinase still bound, per cent of control (MAP3K10 (human)): 99%; kinase still bound, per cent of control (NTRK2 (human)): 81%
